Common to all, as to type: cell-based, human
One assay concerns MDA-MB-468 cells. Briefly: Cell cycle analysis by flow cytometry. The conditions noted are these: 3 μM YC-1, 6 h post-treatment. On the procedure: (A) Cells were treated with indicated concentration of YC-1 for 6, 24, and 48 h. Cell viability was determined by MTT method. (B) MDA-MB-468 cells were treated with 3 μM YC-1 for 0, 6, and 12 h, and then stained with fluorescence diacetate (FDA) and propidium iodide (PI). Cell morphology was assessed by fluorescence microscopy with magnification ×20 (upper 3 rows) or ×40 (lowest row). (C) MDA-MB-468 cells were treated with 3 μM YC-1 for 24 h, cells were lysed and subjected to western blot analysis described in Materials and Methods. β-actin is a loading control. Blots were representative of results from three independent experiments. (D) Cells were treated with vehicle (DMSO, as control) or 3 μM YC-1 for 6 h. The cell cycles were analyzed by flow cytometry. (E) Cells were treated with indicated concentration of YC-1 and then performed with clonogenic assay.
Cells (1×10^6) treated with YC-1 were fixed in cold 70% ethanol overnight. Cells were stained with staining solution (0.5% Triton X-100, 2 mg/ml propidium iodide, 1 mg/ml RNase A in 1×PBS), followed by analysis on a FACSCalibur flow cytometer (BD Biosciences, Mountain View, Calif., USA).
On the technique in general: In flow cytometry, cells or beads pass a laser one at a time.

The subject of the next assay is Src, Raf-1, and MEK. Briefly: Western blot of Src, Raf-1 and MEK activation. The conditions noted are these: 3 μM YC-1. On the procedure: (A) Cells were pretreated with DMSO (as control), Bay-43-9006 (Bay, 10 μM), farnyesyl thiosalicylic acid (FTS, 10 μM), Src inhibitor I (SrcI, 10 μM), and genistein (Gen, 10 μM), then followed by YC-1 (3 μM) incubation for 6 h. Cells were harvested and lysed for western blot analysis (left, right) and cell viability (middle). The levels of protein expression were quantitated and shown under blots. (B) MDA-MB-468 cells were transfected with shRNA of Raf-1 or Src. After stimulation of 3 μM YC-1 for 4 h, cell protein was subjected to western blot analysis. (C) Cells were incubated with 3 μM YC-1 for indicated time and then lysed for detection of Src, Raf-1, and MEK activation by using specific anti-phosphorylated antibodies. (D) Cells were treated with 3 μM YC-1 for indicated time. Cells were lysed and detected Ras activation by using Raf-RBD conjugated agarose to pull-down Ras-GTP. The total Ras in cell lysate was also detected. […] Cells were lysed and protein expression was determined by western blot analysis. […]
Cells were lysed in PBS containing proteinase inhibitor and phosphatase inhibitors and sonication. Protein concentration was measured using the Bio-Rad protein assay kit (Bio-Rad Laboratories, Hercules, Calif., USA). […] The band intensities were analyzed and quantified by the Multi Gauge software (Fuji Photo Film).
(In general: Immunoblotting shows a protein as a band on a membrane.)

A further assay concerns Akt. Briefly: Western blot of Akt activation. The note with it: 3 μM YC-1. On the procedure: (A) MDA-MB-468 cells were incubated with 3 μM YC-1 for indicated time. Cells were harvested for the detection of phospho-Akt (Ser473), Akt, and PCNA. (B) Cells were pretreated with LY294002 (LY, 10 μM) for 1 h followed by 3 μM YC-1 induction for 6 h. (C) MDA-MB-468 cells were incubated with 3 μM YC-1 for indicated time. Cells were harvested for the detection of phospho-CDK1 (Thr161), CDK1, phospho-EZH2 ([…]), EZH2, and β-actin expression with western blot analysis. Levels of EZH2 phosphorylation were calculated by phospho-EZH2 normalized by total EZH2. (D) Cells were treated with YC-1 for 6 h in the absence or presence of roscovitine (Rosc, 20 μM). Cells were harvested and analyzed by western blotting for protein expression. (E) CDK1 knockdown of MDA-MB-468 cells were induced with 3 μM YC-1 for 4 h and followed by western blot analysis.
Cells were lysed in PBS containing proteinase inhibitor and phosphatase inhibitors and sonication. Protein concentration was measured using the Bio-Rad protein assay kit (Bio-Rad Laboratories, Hercules, Calif., USA). Lysate protein was separated by electrophoresis of SDS-PAGE and transferred to Immobilon P membrane (EMD Millipore). […] The band intensities were analyzed and quantified by the Multi Gauge software (Fuji Photo Film).

Another assay deals with ERK. Briefly: Western blot of ERK phosphorylation in MDA-MB-468 cells. The conditions noted are these: 3 μM YC-1; beginning at 2 h, maximal at 6 h. On the procedure: (A) Cells were pretreated with KT5720 (3 μM), KT5823 (3 μM), NS2028 (30 μM), or ODQ (30 μM) and then stimulated with YC-1 (3 μM) for 6 h. Cells were collected for measurement of protein expression (left) or cell viability (middle). After 3 days of PKA knockdown, cells were induced with 3 μM YC-1 for 4 h. Cells were harvested and analyzed using western blotting (right). The levels of protein expression were quantitated and shown under blots. […] Cells were collected and analyzed protein expression (left) and cells viability (middle). p44/42 MAPK knockdown cells were treated with 3 μM YC-1 for 4 h and then detected protein expression (left). (C) Cells were treated with 3 μM YC-1 for indicated time. Cells were harvested for detection of protein phosphorylated activation. […] Six hours later, cells were harvested for EZH2 ubiquitination assay. (E) Cells were induced by 3 μM YC-1 for 6 h in the presence of PD98059 or KT5720. Cells were collected for the determination of ERK phosphorylation. Cells were lysed in PBS containing proteinase inhibitor and phosphatase inhibitors and sonication. Protein concentration was measured using the Bio-Rad protein assay kit (Bio-Rad Laboratories, Hercules, Calif., USA). […] The band intensities were analyzed and quantified by the Multi Gauge software (Fuji Photo Film).

In the assay on MDA-MB-468 cells (control 5.9%), `OCc1ccc(-c2nn(Cc3ccccc3)c3ccccc23)o1` [YC-1, 3-(5′-hydroxymethyl-2′-furyl)-1-benzyl indazole] yielded a sub-G1 population of 13.5%. Moreover, the “percentage of cells at the G1 phase” value in the assay on MDA-MB-468 cells (control 57.2%) is given as 64.8%. Further, in the assay with Src, Raf-1, and MEK, the “phosphorylated activation of Src, Raf-1, and MEK” value was “time-dependent phosphorylated activation”. The Akt activation entry in the assay with Akt is “activated”. In the assay on ERK, the “phosphorylated activation of ERK” value was “rapid phosphorylated activation”.

Values taken from patent US20140357688A1, “METHOD FOR INHIBITING EZH2 EXPRESSION IN BREAST CANCER CELLS” (Yung Shin Pharm. Ind. Co., Ltd., priority 2013, published 2014).
